Assay results reported in patent publication US20030013660A1, “Dioxolane analogs for improved inter-cellular delivery” (Shire BioChem Inc., priority 2000, published 2003).
Where two headings read alike, the source gives them in different places.

How the values were obtained:
Assay in all cases: 3H-TdR (3H-thymidine) incorporation assay at 72 hr
H-460 = format: cell-based, Human
MCF-7 = format: cell-based, Human
SF-268 = format: cell-based, Human
CCRF-CEM = format: cell-based
Method: (§1) Table of IC50 Values (μM) for Controls
(§2) Exposition of 24 hr to drug, wash, incubated for another 48 hr (total of 72 hr assay)
(§3) (3H-Thymidine Incorporation Assay)

CEM/dCK- = format: cell-based; conditions: for IC50: Homo sapiens, CCRF-CEM; for Factor* (Resistance Factor = Ratio of dCK- on Wild-type CCRF-CEM): ratio of IC50 CEM/dCK- to CCRF-CEM, 24 h
Method: as §1, §2, §3

[1] = Homo sapiens, NCI-H460, read-out: IC50 H-460 24 h
[2] = Homo sapiens, MCF7, read-out: IC50 MCF-7 24 h
[3] = Homo sapiens, SF-268, read-out: IC50 SF-268 24 h
[4] = Homo sapiens, CCRF-CEM, read-out: IC50 CCRF-CEM 24 h
[5] = Homo sapiens, NCI-H460, read-out: IC50 H-460 24 h, 24 h drug exposure, wash, another 48 hr, 3H-TdR incorporation at 72 hr
[6] = Homo sapiens, MCF7, read-out: IC50 MCF-7 24 h, 24 h drug exposure, wash, another 48 hr, 3H-TdR incorporation at 72 hr
[7] = Homo sapiens, SF-268, read-out: IC50 SF-268 24 h, 24 h drug exposure, wash, another 48 hr, 3H-TdR incorporation at 72 hr
[8] = Homo sapiens, CCRF-CEM, read-out: IC50 CCRF-CEM 24 h, 24 h drug exposure, wash, another 48 hr, 3H-TdR incorporation at 72 hr
[9] = read-out: IC50 CEM/dCK- 24 h, 24 h drug exposure, wash, another 48 hr, deoxycytidine kinase-deficient CCRF-CEM

Row | SMILES | IC50 (H-460; [5]) [nM] | IC50 (MCF-7; [6]) [nM] | IC50 (SF-268; [7]) [nM] | IC50 (CCRF-CEM; [8]) [nM] | IC50 (CEM/dCK-; [9]) [nM] | IC50 (H-460; [1]) [nM] | IC50 (MCF-7; [2]) [nM] | IC50 (SF-268; [3]) [nM] | IC50 (CCRF-CEM; [4]) [nM] | IC50 (CEM/dCK-; read-out: IC50 CEM/dCK- 24 h) [nM] | Factor* (Resistance Factor = Ratio of dCK- on Wild-type CCRF-CEM) (CEM/dCK-) | IC50 (H-460; read-out: IC50 H-460 24 h, 24 h drug exposure, wash, another 48 hr, 3H-TdR incorporation at 72 hr) [nM] | IC50 (MCF-7; read-out: IC50 MCF-7 24 h, 24 h drug exposure, wash, another 48 hr, 3H-TdR incorporation at 72 hr) [nM] | IC50 (SF-268; read-out: IC50 SF-268 24 h, 24 h drug exposure, wash, another 48 hr, 3H-TdR incorporation at 72 hr) [nM] | IC50 (CCRF-CEM; read-out: IC50 CCRF-CEM 24 h, 24 h drug exposure, wash, another 48 hr, 3H-TdR incorporation at 72 hr) [nM]
1 | COc1ccc(OC(=O)Nc2ccn([C@@H]3CO[C@H](COC(=O)Oc4ccc(OC)cc4)O3)c(=O)n2)cc1 [Compound 63] | – | – | – | – | – | 110 | 370 | 76 | 36 | > 100000 | 2,778 | – | – | – | –
2 | CC(C)OC(=O)OCOC[C@H]1OC[C@@H](n2ccc(N)nc2=O)O1.O=C(O)C(F)(F)F [Compound 68, CARBONIC ACID 4-(4- AMINO-2-OXO-2H- PYRIMIDIN-1-YL)- [1,3]DIOXOLAN-2- YLMETHOXYMETHYL ESTER ISOPROPYL ESTER TRIFLUOROACETIC ACID SALT] | 19 | 76 | 210 | 30 | > 100000 | – | – | – | – | – | 3,333 | – | – | – | –
3 | CC(C(=O)OC[C@H]1OC[C@@H](n2ccc(/N=C/N(C)C)nc2=O)O1)c1ccccc1 (stereo partly drawn) [Compound 70, (2S,4S)-2-(2″- METHYLPHENYLACETOXY)MET HYL-4-(4′-N,N- DIMETHYLAMINOMETHYLENE- CYTOSIN-1′-YL)-1,3- DIOXOLANE] | 36 | 47 | 270 | 8.8 | 30000 | – | – | – | – | – | 3,409 | – | – | – | –
4 | COc1ccc(OC(=O)Nc2ccn([C@@H]3CO[C@H](CO)O3)c(=O)n2)cc1 [Compound 73, [1-(2-HYDROXYMETHYL- [1,3]DIOXOLAN-4-YL)-2- OXO-1,2-DIHYDRO- […]-4-YL]- CARBAMIC ACID 4- METHOXY-PHENYL ESTER] | – | – | – | – | – | 270 | 260 | 30 | 100 | 99000 | 990 | – | – | – | –
5 | CC(C)(C)OC(=O)N(CCCCCC(=O)Nc1ccn([C@@H]2CO[C@H](COC(=O)CCCCCN(Cc3ccccc3)C(=O)OC(C)(C)C)O2)c(=O)n1)Cc1ccccc1 [Compound 78, 6-(Benzyl-tert-butoxycarbonyl-amino)-hexanoic acid 4-{4-[6-(benzyl-tert-butoxycarbonyl-amino)-hexanoylamino]-2-oxo-2H-pyrimidin-1-yl}-[1,3]dioxolan-2-ylmethyl ester] | 42 | 45 | 95 | 37 | 13000 | – | – | – | – | – | 351 | – | – | – | –
6 | N=C(OC[C@H]1OC[C@@H](n2ccc(N)nc2=O)O1)C(Cl)(Cl)Cl [Compound 79] | – | – | – | – | – | 120 | 170 | 160 | 14 | – | 4,500 | – | – | – | –
7 | Nc1ccn([C@@H]2CO[C@H](COC(=O)CCCCCNCc3ccccc3)O2)c(=O)n1 [Compound 84, 6-Benzylamino-hexanoic acid 4-(4-amino-2-oxo-2H-pyrimidin-1-yl)-[1,3]dioxolan-2-ylmethyl ester] | – | – | – | – | – | – | – | – | – | – | 5,000 | 14 | 9.4 | 360 | 12
8 | Nc1ccn([C@@H]2CO[C@H](CO[C@@H]3O[C@H](CO)[C@@H](O)[C@H]3O)O2)c(=O)n1.O=C(O)C(F)(F)F [Compound 85, 4-AMINO-1-[2-(3,4- DIHYDROXY-5- HYDROXYMETHYL- TETRAHYDROFURAN-2- YLOXYMETHYL)- [1,3]DIOXOLAN-4-YL]- 1HPYIMIDIN-2-ONE, TRIFLUOROACETIC ACID SALT] | 690 | 6800 | 16000 | 2600 | > 100000 | – | – | – | – | – | 38 | – | – | – | –

Now from value to compound, other results behind:

Row | IC50 (H-460; [5]) [nM] | IC50 (MCF-7; [6]) [nM] | IC50 (SF-268; [7]) [nM] | IC50 (CCRF-CEM; [8]) [nM] | IC50 (CEM/dCK-; [9]) [nM] | SMILES | IC50 (H-460; [1]) [nM] | IC50 (MCF-7; [2]) [nM] | IC50 (SF-268; [3]) [nM] | IC50 (CCRF-CEM; [4]) [nM] | IC50 (CEM/dCK-; read-out: IC50 CEM/dCK- 24 h) [nM] | Factor* (Resistance Factor = Ratio of dCK- on Wild-type CCRF-CEM) (CEM/dCK-) | IC50 (H-460; read-out: IC50 H-460 24 h, 24 h drug exposure, wash, another 48 hr, 3H-TdR incorporation at 72 hr) [nM] | IC50 (MCF-7; read-out: IC50 MCF-7 24 h, 24 h drug exposure, wash, another 48 hr, 3H-TdR incorporation at 72 hr) [nM] | IC50 (SF-268; read-out: IC50 SF-268 24 h, 24 h drug exposure, wash, another 48 hr, 3H-TdR incorporation at 72 hr) [nM] | IC50 (CCRF-CEM; read-out: IC50 CCRF-CEM 24 h, 24 h drug exposure, wash, another 48 hr, 3H-TdR incorporation at 72 hr) [nM]
9 | 1.7 | 4.4 | 7.1 | 1.8 | 3600 | CCCCC(C)C(=O)OC[C@H]1OC[C@@H](n2ccc(/N=C/N(C)C)nc2=O)O1 (stereo partly drawn) [Compound 64, (2S,4S)-2-(2″-METHYL- HEXANOICOXYMETHYL)-4- (4′-NN- DIMETHYLAMINOMETHYLENE- CYTOSIN-1′-YL)-1,3- DIOXOLANE] | – | – | – | – | – | 2,000 | – | – | – | –
10 | 11 | 12 | 33 | 3.9 | 26000 | CCCCC(CC)C(=O)OC[C@H]1OC[C@@H](n2ccc(/N=C/N(C)C)nc2=O)O1 (stereo partly drawn) [Compound 65, (2S,4S)-2-(2″-ETHYL- HEXANOICOXYMETHYL)-4- (4′-N,N- DIMETHYLAMINOMETHYLENE- CYTOSIN-1′-YL)-1,3- DIOXOLANE] | – | – | – | – | – | 6,667 | – | – | – | –
11 | 310 | 130 | 810 | 180 | > 100000 | CCCCCOC(=O)Nc1ccn([C@@H]2CO[C@H](CO)O2)c(=O)n1 [Compound 71, [1-(2-HYDROXYMETHYL- [1,3]DIOXOLAN-4-YL)-2- OXO-1,2-DIHYDRO- PYRIMIDIN-4-YL]- CARBAMIC ACID PENTYL ESTER] | – | – | – | – | – | 556 | – | – | – | –
12 | 59 | 30 | 380 | 54 | 74000 | CC(C)(C)OC(=O)N(CCCCCC(=O)Nc1ccn([C@@H]2CO[C@H](CO)O2)c(=O)n1)Cc1ccccc1 [Compound 77, Benzyl-{5-[1-(2-hydroxymethyl-[1,3]dioxolan-4-yl)-2-oxo-1,2-dihydro-pyrimidin-4-ylcarbamoyl]-pentyl}-carbamic acid tert-butyl ester] | – | – | – | – | – | 1,370 | – | – | – | –
13 | 1800 | 670 | 3500 | 460 | > 100000 | COC(=O)CCCC(=O)Nc1ccn([C@@H]2CO[C@H](COC(=O)CCCC(=O)OC)O2)c(=O)n1 [Compound 80, PENTANEDIOIC ACID 4-[4- (4-METHOXYCARBONYL- BUTYRYLAMINO)-2-OXO- 2#H!-PYRIMIDIN-1-YL]- [1,3]DIOXOLAN-2- YLMETHYL ESTER METHYL ESTER] | – | – | – | – | – | 217 | – | – | – | –
14 | 3100 | 2200 | 7900 | 1200 | > 100000 | COC(=O)CCCC(=O)Nc1ccn([C@@H]2CO[C@H](CO)O2)c(=O)n1 [Compound 81, 4-[1-(2-HYDROXYMETHYL- [1,3]DIOXOLAN-4-YL)-2- OXO-1,2-DIHYDRO- PYRIMIDIN-4- YLCARBAMOYL]-BUTYRIC ACID METHYL ESTER] | – | – | – | – | – | 83 | – | – | – | –
15 | 170 | 120 | 300 | 53 | > 100000 | COC(=O)CCCC(=O)OC[C@H]1OC[C@@H](n2ccc(N)nc2=O)O1 [Compound 82, PENTANEDIOIC ACID 4-(4- AMINO-2-OXO-2#H!- PYRIMIDIN-1-YL)- [1,3]DIOXOLAN-2- YLMETHYL ESTER METHYL ESTER] | – | – | – | – | – | 1,887 | – | – | – | –
16 | 2 | 1.9 | 13 | 1.1 | 4000 | CCCCC(C)C(=O)OC[C@H]1OC[C@@H](n2ccc(N)nc2=O)O1.Cl (stereo partly drawn) [Compound 86, (2S,4S)-2-(2″-METHYL- HEXANOICOXYMETHYL)-4- CYTOSIN-1′-YL-1,3- DIOXOLANE HYDROCHLORIDE] | – | – | – | – | – | 3,636 | – | – | – | –
